Records with an inconclusive call do not appear. Active and inactive are the calls of the source. How the calls were made is not given here.
What follows are molecules tested on EBV lymphoblastoid cells (LCL) viability, plate reader (assay: LCL viability reduction – cell-based, plate reader, cherry-picks, set 2, cytotoxicity control, dose response (AID 504882)).
With `C#CCN(C[C@@H]1[C@@H](OC(=O)NCC2CCCCC2)[C@@H](OC(=O)NCC2CCCCC2)Cn2c(=O)ccc(=O)n21)S(=O)(=O)c1ccc(C)cc1` the AC50 was 3.84 µM.
`NC(=S)NN=Cc1nccc2c(C(F)(F)C(F)(F)C(F)(F)F)cccc12` showed an AC50 of 0.452 µM.
Molecule `CC(C)C(=O)NC(c1ccc(Cl)cc1Cl)c1ccc2cccnc2c1O` (stereo unspecified) has an AC50 of 2.28 µM.
`CCn1c2ccccc2c2cc(/C=C(/C#N)C(N)=S)ccc21` gave an AC50 of 0.998 µM.
`Oc1ccc(C=NNc2ccccn2)c(O)c1` showed an AC50 of 16.2 µM.
In the case of `COc1ccc(OCc2cccc(C(=O)NN)c2)cc1`, the AC50 is reported as > 19.5 µM (inactive).
With `COc1ccc(-c2ccc(NC(=O)c3ccco3)cc2)nn1` the AC50 was 4.42 µM.
Molecule `Cc1cc(S(=O)(=O)c2ccc(Cl)cc2)nc(S(=O)(=O)c2ccc(Cl)cc2)c1C#N` has an AC50 of 0.855 µM.
Work on `CC(=NNc1nc2ccccc2o1)c1ncccn1` yielded an AC50 of 0.384 µM.
In the case of `C/C(=N\NC(=O)c1cccc(Br)c1)c1ccccn1`, the AC50 is reported as 0.803 µM.
For `COc1cc(C(=O)Oc2ccccc2/C=N/NC(=O)c2ccc(C)c(Cl)c2)cc(OC)c1OC`, the AC50 was 12.7 µM.
For `CCCCCCc1cc2cc(-c3nnc(-c4ccccc4)o3)c(=O)oc2cc1O`, the AC50 was 9.34 µM.
`COc1ccc(-c2nc(-c3cccs3)no2)cc1` was tested, and the AC50 was > 19.5 µM (inactive).
For `CCC(=O)NC(c1cc(Cl)c2cccnc2c1O)C1CC1` (stereo unspecified), the AC50 was 6.08 µM.
In the case of `C#Cc1cc(N2CCN(C(=O)c3ccoc3)CC2)n2nc(-c3cccc(Cl)c3)cc2n1`, the AC50 is reported as 10.4 µM.
For `O=C(NNC(=S)Nc1ccc(Cl)c(Cl)c1)c1ccccn1`, the AC50 was 1.5 µM.
`COc1cccc(/C=N/Nc2ncnc(Cl)c2N)c1O` was tested, and the AC50 was 3.73 µM.
In the case of `CCOc1ccc(/C=C/[N+](=O)[O-])c2ccccc12`, the AC50 is reported as 1.92 µM.
With `O=C(N/N=C/c1c(O)ccc2ccccc12)c1cccnc1` the AC50 was 10.5 µM.
For `CCCC(=O)NC(c1cccc([N+](=O)[O-])c1)c1ccc2cccnc2c1O` (stereo unspecified), the AC50 was 3.51 µM.
For `Cc1csc(N=Nc2ccc(N(C)C)cc2)[n+]1[O-]`, the AC50 was 7.33 µM.
Molecule `O=C(Nc1nnc(SCc2ccc(F)cc2)s1)c1ccccn1` has an AC50 of 14.1 µM.
For `CCn1c2ccccc2c2cc(/C=N/n3c(-c4cc(C)[nH]n4)n[nH]c3=S)ccc21`, the AC50 was 6.59 µM.
With `CCOC(=O)c1c(CSc2nc(C)cc(C)c2C#N)n(C)c2cc(Br)c(OC(C)=O)cc12` the AC50 was 14.6 µM.
`CCN(CC)c1ccc(/C=N/NC(=O)c2c(Cl)cnn2C)c(O)c1` gave an AC50 of 3.19 µM.
With `CC(=NNC(=S)Nc1cccc(Cl)c1)c1ccccn1` the AC50 was 0.138 µM.
For `CCN(CC)C(=O)c1ccc(NC(=O)Nc2ccccc2F)cc1`, the AC50 was 2.63 µM.
For `CC(=O)NC(c1cccs1)c1cc(F)c2cccnc2c1O` (stereo unspecified), the AC50 was 6.96 µM.
`CC(=O)NC(c1ccc2ccccc2c1)c1ccc2cccnc2c1O` (stereo unspecified) gave an AC50 of 1.93 µM.
`COc1ccc(C(=O)NC2CCCc3c2cnn3-c2cccc(C)c2C)c(OC)n1` (stereo unspecified) was tested, and the AC50 was 1.22 µM.
For `O=C(Nc1ccc(C(=O)N2CCOCC2)cc1)Nc1cccc(C(F)(F)F)c1`, the AC50 was > 19.5 µM (inactive).
Work on `COc1ccc(O)c(/C=N/Nc2nc(Nc3ccccc3)nc(-n3nc(C)cc3C)n2)c1` yielded an AC50 of 10.7 µM.
For `Cc1ccc2[nH]c3c(N4CCN(Cc5ccccc5)CC4)ncnc3c2c1`, the AC50 was 10.6 µM.
With `C#CCN(C[C@@H]1[C@@H](OC(=O)NCCCCCC)[C@@H](OC(=O)NCCCCCC)Cn2c(=O)ccc(=O)n21)S(=O)(=O)c1ccc(C)cc1` the AC50 was 3.98 µM.
`Oc1c(N=NC(=S)Nc2ccccc2F)c2ccccc2n1Cc1cccc(Cl)c1` was tested, and the AC50 was > 19.5 µM (inactive).
With `COc1ccc(C=C2CS(=O)(=O)CC(=Cc3ccc(OC)cc3)C2=O)cc1` the AC50 was 0.675 µM.
Molecule `N#CC(C#N)=NNc1ccc(-n2ccc(C(F)(F)F)n2)cc1` has an AC50 of 2.53 µM.
Work on `COc1ccc(/C=C/c2nc3ccccc3n2C)cc1` yielded an AC50 of 3.28 µM.
For `O=c1c2c(nc3c(-c4ccc(Cl)cc4)c[nH]n13)CCCC2`, the AC50 was 2.44 µM.
`CCn1c2ccccc2c2cc(/C=N/n3cnnc3)ccc21` was tested, and the AC50 was 10.7 µM.
Work on `N#Cc1c(Oc2ccc3ccccc3c2)sc(C(=O)c2ccccc2)c1N` yielded an AC50 of 20 µM.
`C[n+]1c2n(c3ccccc31)N=C(c1cc(C(C)(C)C)c(O)c(C(C)(C)C)c1)CS2` gave an AC50 of 7.62 µM.
With `CCn1c2ccccc2c2cc(/C=N/n3c(C)nnc3C)ccc21` the AC50 was > 19.5 µM (inactive).
Work on `COc1cccc(/C=N/Nc2nc3ccccc3[nH]2)c1O` yielded an AC50 of 4.42 µM.
`S=C(NCCCN1CCOCC1)N1CCN(c2nc(-c3ccc(Cl)cc3)cs2)CC1` showed an AC50 of 12.9 µM.
Work on `CCc1sc(C(=O)Nc2nc(-c3ccccn3)cs2)cc1C` yielded an AC50 of 7.43 µM.
Work on `Nc1ccc(C(=O)N/N=C\c2cc(N=Nc3cccc4ccccc34)ccc2O)cc1` yielded an AC50 of 10.7 µM.
Molecule `CC(=NNC(=S)Nc1ccccc1Cl)c1ccccn1` has an AC50 of 0.055 µM.
Molecule `COc1ccccc1-c1nnc(Sc2nc([N+](=O)[O-])nn2C)o1` has an AC50 of 8.25 µM.
Molecule `CCOC(=O)c1c2c(n(C)c1C)C(=O)C(=O)c1ccc(Br)cc1-2` has an AC50 of 1.95 µM.
`C(=N\Nc1nc2ccccc2[nH]1)/c1cccc2cccnc12` showed an AC50 of 1.06 µM.
For `CC1=C(C(=O)OCc2ccc3c(c2)OCO3)C(c2ccc(Cl)cc2)NC(=O)N1` (stereo unspecified), the AC50 was 0.379 µM.
In the case of `Cc1oc2c(c1C(=O)c1ccc(Cl)cc1)C(=O)C(=O)c1ccccc1-2`, the AC50 is reported as 5.51 µM.
With `C#CCN(C[C@@H]1[C@@H](OC(=O)NCc2ccccc2F)[C@@H](OC(=O)NCc2ccccc2F)Cn2c(=O)ccc(=O)n21)S(=O)(=O)c1ccc(C)cc1` the AC50 was 3.8 µM.
In the case of `CCCc1cc(=O)n2[nH]cc(-c3ccc(Cl)cc3)c2n1`, the AC50 is reported as 8.45 µM.
`O=c1[nH]c(=O)n([C@H]2C[C@H](O)[C@@H](CO)O2)cc1C(F)(F)F` gave an AC50 of 1.51 µM.
Work on `CCn1c2ccccc2c2cc(/C=N/n3cn[nH]c3=S)ccc21` yielded an AC50 of 3.79 µM.
Molecule `O=S(=O)(c1ccc2c(c1)C(=NO)c1cc(S(=O)(=O)N3CCCCC3)ccc1-2)N1CCCCC1` has an AC50 of 1.2 µM.
For `Cc1c(C(=O)Nc2nc(-c3ccccn3)cs2)oc2ccccc12`, the AC50 was 11 µM.
With `O=C(N/N=C/c1cc2c3c(c1O)CCCN3CCC2)c1ccccc1O` the AC50 was 3.05 µM.
`c1ccc(-c2nc(-c3ccccn3)no2)cc1` was tested, and the AC50 was 9.22 µM.
For `COc1ccc(Cc2nnc(N/N=C/c3ccc(O)cc3)[nH]c2=O)cc1OC`, the AC50 was 4.05 µM.
Molecule `CCCCC(=O)NC(c1ccc(OC)cc1)c1ccc2cccnc2c1O` (stereo unspecified) has an AC50 of 17.7 µM.
In the case of `O=C(/C=C1\NC2(CCCC2)Cc2ccccc21)C(=O)N/N=C/c1ccccc1O`, the AC50 is reported as 18 µM.
`Cc1ccc2[nH]c(C(=O)N/N=C/c3ccccc3O)c(C)c2c1` gave an AC50 of 3.05 µM.
`Cc1cc(=O)[nH]c(NN=Cc2cc(Br)ccc2O)n1` showed an AC50 of 3.92 µM.
Work on `O=C(/C=C/c1ccco1)Oc1cc(Br)cc(/C=N/NC(=O)c2ccccc2O)c1` yielded an AC50 of 6.29 µM.
For `CCNc1ccc(Br)cc(C(=O)/C=C/c2ccccc2Cl)c1=O`, the AC50 was 15.3 µM.
Molecule `O=C(N/N=C/c1ccc[nH]1)c1ccc(COc2cccc3cccnc23)cc1` has an AC50 of 4.93 µM.
In the case of `Cc1ccc(/C=N/NC(=O)c2cc(-c3ccccc3)nc3ccccc23)o1`, the AC50 is reported as > 19.5 µM (inactive).
For `CCc1cc(C(=O)Nc2ncccc2O)sc1C`, the AC50 was > 19.5 µM (inactive).
Molecule `O=c1cc(-c2ccccc2)oc2ccc3ccccc3c12` has an AC50 of 8.53 µM.
`Nc1ccn([C@@H]2O[C@H](CO)[C@@H](O)[C@@H]2O)c(=O)n1` was tested, and the AC50 was 0.748 µM.
`CC(C)CC(=NNC(=O)c1ccncc1)c1cc(Cl)ccc1O` gave an AC50 of 3.19 µM.
`Clc1ccc(-n2nnnc2Sc2ncnc3sccc23)cc1` showed an AC50 of 8.53 µM.
With `CCOC(=O)c1cnc(-n2nc(C)cc2C)nc1NNc1cc(C)nc(-c2ccccc2)n1` the AC50 was 3.73 µM.
Work on `CC(=O)NC(c1ccc(Cl)cc1Cl)c1ccc2cccnc2c1O` (stereo unspecified) yielded an AC50 of 1.56 µM.
With `COc1ccc2[nH]c(C(=O)N/N=C/c3ccc(O)cc3O)cc2c1` the AC50 was 16 µM.
`Oc1ccc(C=NNC(=S)Nc2ccccc2)nc1` gave an AC50 of 13 µM.
`COc1ccc(Cn2c(SCc3cc(C)ccc3C)nc3cc(OC)c(OC)cc3c2=N)cc1` gave an AC50 of 6.5 µM.
For `CCCN(CCC)S(=O)(=O)c1ccc(C(=O)Nc2nnc(-c3cc(OC)cc(OC)c3)o2)cc1`, the AC50 was > 19.5 µM (inactive).
For `CCN(CC)S(=O)(=O)c1cc([N+](=O)[O-])ccc1NNC(=O)Nc1ccc(Cl)c(Cl)c1`, the AC50 was 20.2 µM.
`O=C(NC(Nc1nc2ccc([N+](=O)[O-])cc2s1)(C(F)(F)F)C(F)(F)F)c1ccccc1` showed an AC50 of 0.298 µM.
In the case of `Cc1cc(=O)[nH]c(N=N/C(=N/Nc2ccccc2C)c2ccccc2)n1`, the AC50 is reported as 8.28 µM.
`CCN(CC)c1ccc(/C=N/Nc2nc3ccccc3[nH]2)c(O)c1` showed an AC50 of 2.74 µM.
In the case of `CCC(=O)NC(c1cc(Cl)c2cccnc2c1O)C(C)C` (stereo unspecified), the AC50 is reported as 6.78 µM.
For `c1ccc(-c2cccc(-c3ccccn3)n2)nc1`, the AC50 was 1.69 µM.
Molecule `O=C(c1ccccc1)C(CCC(CN1CCOCC1)C(=O)c1ccccc1)CN1CCOCC1` (stereo unspecified) has an AC50 of 7.73 µM.
Molecule `Cc1sc2ncnc(N/N=C/c3ccccc3O)c2c1C` has an AC50 of 3.59 µM.
For `C=C(C(=O)c1ccccc1)C(CC(=O)c1ccccc1)c1ccccc1` (stereo unspecified), the AC50 was 3.79 µM.
`COc1cccc(/C=N/NC(=O)c2[nH]nc3c2CCc2ccccc2-3)c1O` was tested, and the AC50 was 4.51 µM.
In the case of `CCN(CC)CCC(=O)N1C/C(=C/c2ccccc2)C(=O)/C(=C\c2ccccc2)C1`, the AC50 is reported as 1.36 µM.
`Cn1nnnc1N=N/C(=N/Nc1ccccc1)c1ccccc1` showed an AC50 of 1.71 µM.
With `Cc1[nH]n(-c2ccccc2)c(=O)c1/C=N/Nc1nncc(-c2ccccc2)n1` the AC50 was 0.83 µM.
Work on `O=C(Nc1ccc(N2CCOCC2)cc1)c1cn2ccccc2n1` yielded an AC50 of 10.9 µM.
`NC(=S)NN=Cc1nccc2c(N)cccc12` was tested, and the AC50 was 1.04 µM.
For `COc1ccc(-c2nnc(NC(=O)c3ccc(S(=O)(=O)N4CCCc5ccccc54)cc3)o2)cc1`, the AC50 was 15 µM.
`CCCCC(=O)NC(c1ccc(Cl)cc1Cl)c1ccc2cccnc2c1O` (stereo unspecified) was tested, and the AC50 was 2.55 µM.
`CC(C)OC(=O)c1ccc(NCc2cc(O)ccc2O)cc1Cl` gave an AC50 of 5.06 µM.
Work on `CCc1ccc(Nc2n[n+](-c3ccccc3)c(-c3c(Cl)cccc3Cl)s2)cc1` yielded an AC50 of 15 µM.
With `Cc1onc(-c2ccccc2)c1C(=O)NC(=S)NNC(=O)c1ccc(O)cc1O` the AC50 was > 19.5 µM (inactive).
With `CCOc1cccc(/C=N/Nc2ccc(S(=O)(=O)N(CC)CC)cn2)c1O` the AC50 was 1.79 µM.
`COc1ccc(-n2nc(C(=O)c3cccs3)cc(-c3nc4ccccc4[nH]3)c2=N)cc1` gave an AC50 of 8.9 µM.
`CCN(CC)S(=O)(=O)c1ccc(N/N=C/c2ccc(O)cc2O)nc1` gave an AC50 of 3.31 µM.
In the case of `NC(Cc1ccc(O)cc1)C(=O)NN=Cc1ccc(N(CCCl)CCCl)cc1` (stereo unspecified), the AC50 is reported as 0.983 µM.
With `S=C1SCN(Cc2ccco2)CN1Cc1ccco1` the AC50 was 15.8 µM.
For `Cc1cc(Sc2nnc(/N=C/N(C)C)s2)c2ccccc2n1`, the AC50 was 9.16 µM.
`Cc1ccc(C(=O)N/N=C/c2c(O)ccc3ccccc23)cn1` showed an AC50 of 17 µM.
`CC(=NNC(=S)N1CCN(c2ccccn2)CC1)c1nccs1` gave an AC50 of 0.429 µM.
`COc1ccc(CNC(=O)N2[C@H]3CC[C@@H]2C=C(c2ccc(F)cc2OCc2ccccc2)C3)cc1OC` gave an AC50 of 2.3 µM.
`COc1ccc(-c2[nH]ncc2-c2ccc3c(c2)OCCO3)c(O)c1` was tested, and the AC50 was > 19.5 µM (inactive).

Reference: PubChem BioAssay AID504882 (Broad Institute, 2011)
